Experimental data as given in patent US10138226B2, “Benzimidazol-2-amines as MIDH1 inhibitors” (Bayer Pharma Aktiengesellschaft, priority 2014, dated 2018).

Assays:
[1] = target: IDH1 R132H enzyme (Homo sapiens (Human), UniProt O75874, R132H); experiment: Mutant IDH1 R132H biochemical assay; conditions: NADPH consumption, luminescent readout, 250 μM α-KG, 1 μM NADPH, 32° C., 30 minutes, test range 0.002-10 μM; further: 1.5 nM enzyme
Experimental: mIDH1 catalyzes the NADPH-dependent reduction of alpha-ketoglutarate (α-KG) to (2R)-2-hydroxyglutarate (2-HG). NADPH consumption was measured by luminescent readout.
The biochemical reactions were performed at 32° C. in 384-well plates using a reaction volume of 41 μl and the following assay buffer conditions: 50 mM Tris pH 7.5, 100 mM NaCl, 20 mM MgCl2, 0.05% BSA, 0.01% Brij, 1 μM NADPH, and 250 μM α-KG. […] Test compounds were used in a concentration range between 0.002 and 10 μM. The final DMSO concentration was 2.4%.
The reaction was incubated for 30 minutes, then 40 μl of detection mix (0.75 μg/ml Luciferase, 0.02 U/ml Oxidoreductase, 4 μg/ml FMN, 2 μl/ml Decanal/Ethanol, 50 mM Tris pH 7.5, 0.5% Glycerin, 0.01% Tween-20, 0.05% BSA) was added. Luminescence was measured on a luminescent reader (10 seconds measuring time, 1 second integration period, 30% sensitivity). The decrease in luminescence is proportional to mIDH1 activity. IC50 values are determined by interpolation from plots of relative luminescence versus inhibitor concentration.

[2] = tested on: LN229 R132H cells overexpressing mutated isocitrate dehydrogenase (mIDH); experiment: Mutant IDH1 cellular assay (2-HG levels in medium); format: cell-based; conditions: 2-HG in medium of LN229 R132H cells, 24 hours incubation, fluorescence readout
Experimental: Mutant IDH1 Cellular Assay
Levels of (2R)-2-hydroxyglutarate (2HG) were measured in medium of a cell line with overexpression of mutated isocitrate dehydrogenase (mIDH) protein. mIDH catalyzes the NADPH-dependent reduction of alpha-ketoglutarate to 2-HG. Cells (LN229 R132H, Mohrenz et al., Apoptosis (2013) 18:1416-1425) were grown in DMEM containing 10% FCS. They were harvested by trypsin and seeded into 96-well plates. Cells were incubated overnight at 37° C. in 5% CO2. The next day test compounds were added to each cell well. The final concentration of DMSO was 0.1% and DMSO controls were included. The plates were then placed in an incubator for 24 hours.
2-HG was measured according to Balss et al. (Acta Neuropathol (2012) 124: 883-891). Briefly, HClO4 was added to each well and the plates were centrifuged. Aliquots are removed and incubated with hydroxyglutarate dehydrogenase (HGDH), diaphorase, NAD+, and resazurin. The conversion of resazurin to resorufin was detected by fluorescence spectroscopy at Ex 540 nm Em 600 nm. The increase in fluorescence is proportional to 2-HG production. IC50 values are determined by interpolation from plots of relative fluorescence vs inhibitor concentration.

IDH1 R132H enzyme, sequence (O75874 whole entry R132H): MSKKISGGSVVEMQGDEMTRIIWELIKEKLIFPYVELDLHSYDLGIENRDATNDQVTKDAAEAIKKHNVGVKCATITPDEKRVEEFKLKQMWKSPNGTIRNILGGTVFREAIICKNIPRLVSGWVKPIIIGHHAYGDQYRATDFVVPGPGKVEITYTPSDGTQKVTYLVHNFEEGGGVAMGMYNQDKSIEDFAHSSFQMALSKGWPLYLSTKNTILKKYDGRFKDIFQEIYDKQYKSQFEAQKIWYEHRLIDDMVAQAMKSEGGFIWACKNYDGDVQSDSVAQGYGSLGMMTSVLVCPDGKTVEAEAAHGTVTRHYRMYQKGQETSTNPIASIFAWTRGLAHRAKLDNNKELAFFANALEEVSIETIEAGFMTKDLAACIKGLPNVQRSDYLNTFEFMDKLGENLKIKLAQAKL

For `COC(=O)CN(C)C(=O)c1ccc2nc(Nc3ccc(OC(F)(F)F)cc3)n([C@H]3C[C@@H](C)CC(C)(C)C3)c2c1` (racemic) [Example 2-9, (±) methyl N-methyl-N-[(2-{[4-(trifluoromethoxy)phenyl]amino}-1-[(cis)-3,3,5-trimethylcyclohexyl]-1H-benzimidazol-6-yl)carbonyl]glycinate], the IC50 [1] was 250 nM and the IC50 ([2]; Homo sapiens, LN-229, 24 h) was 9000 nM.

`C[C@@H]1C[C@H](n2c(Nc3ccc(OC(F)(F)F)cc3)nc3ccc(C(=O)N(C)C)cc32)CC(C)(C)C1` (racemic) [Example 2-20, (±) N,N-dimethyl-2-{[4-(trifluoromethoxy)phenyl]amino}-1-[(cis)-3,3,5-trimethylcyclohexyl]-1H-benzimidazole-6-carboxamide] was tested, and the IC50 [1] was 100 nM and the IC50 ([2]; Homo sapiens, LN-229, 24 h) was 2000 nM.

Work on `C[C@@H]1C[C@H](n2c(Nc3ccc(OC(F)(F)F)cc3)nc3ccc(C(=O)N(C)C)cc32)CC(C)(C)C1` (single isomer, unassigned; enantiomer a) [Example 2-20-1, (±) N,N-dimethyl-2-{[4-(trifluoromethoxy)phenyl]amino}-1-[(cis)-3,3,5-trimethylcyclohexyl]-1H-benzimidazole-6-carboxamide, enantiomer A] yielded an IC50 [1] of 80 nM and an IC50 [2] of 1800 nM.

Compound `C[C@@H]1C[C@H](n2c(Nc3ccc(OC(F)(F)F)cc3)nc3ccc(C(=O)N4CCOCC4)cc32)CC(C)(C)C1` (single isomer, unassigned; enantiomer b) [Example 2-16-2, morpholin-4-yl(2-{[4-(trifluoromethoxy)phenyl]amino}-1-[(cis)-3,3,5-trimeethylcyclohexyl]-1H-benzimidazol-6-yl)methanone, enantiomer B] has an IC50 ([2]; Homo sapiens, LN-229, 24 h) of 400 nM.

`C[C@@H]1C[C@H](n2c(Nc3ccc(OC(F)(F)F)cc3)nc3ccc(C(=O)N(C)C)cc32)CC(C)(C)C1` (single isomer, unassigned; enantiomer b) [Example 2-20-2, (±) N,N-dimethyl-2-{[4-(trifluoromethoxy)phenyl]amino}-1-[(cis)-3,3,5-trimethylcyclohexyl]-1H-benzimidazole-6-carboxamide, enantiomer B] gave an IC50 [1] of 200 nM and an IC50 [2] of 4300 nM.
